# From article PMC12203697, “Bioactive constituents from the edible seaweed Halymenia hawaiiana (Rhodophyta)” (Pharmaceutical Biology, 2025)
# Like-named read-outs stand apart in the source and are kept apart here.
# Assays:
# [1] = Ferric-reducing antioxidant power (FRAP) assay
# Experimental: The FRAP assay was used to evaluate antioxidant activity based on the ability of the sample to reduce Fe^3+-TPTZ (2,4,6-tris(2-pyridyl)-S-triazine) to Fe^2+-TPTZ (Benzie and Strain [1996]). This reduction results in a color change from colorless to blue. The absorbance was measured at 593 nm using a Microplate Reader (BioTek ELx800 Instruments Inc. Winooski, Vermont, USA) with the Gen 5 software for FRAP value calculations. A ferrous sulfate heptahydrate (FeSO4 · 7H2O) (Cat. No. 215422, Sigma-Aldrich, USA) standard curve, ranging from 1000 µM to 50 µM, was prepared for the assay. The FRAP reagent consists of 300 mM sodium acetate buffer (pH 3.6) (Cat. No. 90358, Sigma-Aldrich, USA), 10 mM TPTZ solution (Cat. No. T1253, Sigma-Aldrich, USA), and 20 mM ferric (III) chloride hexahydrate (FeCl3 · 6H2O) (Cat. No. 236489, Sigma-Aldrich, USA) in a 10:1:1 ratio, respectively, and heated to 37 °C for ten minutes before use. A blank was measured at 593 nm with 150 µL FRAP reagent added to each well of a 96-well microtiter plate. Samples (20 µL of each sample) (1, 0.5, 0.25 mg/mL) and ascorbic acid (Sigma-Aldrich, Cat. No. A4403) positive control (1 mg/mL) were added in triplicates. Reducing capacity was expressed by FRAP values in an µM FeSO4/µg sample unit.
# [2] = tested on: A549 human lung carcinoma epithelial cells; test: SRB cytotoxicity assay, A549 cells; settings: SRB assay, 72 h, highest concentration tested 100 µg/ml
# Experimental: After incubation, cells were fixed with trichloroacetic acid (Cat. No. T4885, Sigma-Aldrich, USA), stained with SRB (Cat. No. S9012, Sigma-Aldrich, USA), and the absorbance was measured at 515 nm. Percent cell death was calculated using the following equation: % Cell death=(ODc−OD0)‐(ODs−OD0)/(ODc−OD0)×100
# OD0 = Optical density of cells before treatment (baseline reading).
# ODC = Optical density of untreated control cells after 72 h.
# ODS = Optical density of cells treated with the test sample after 72 h.
# Non-linear regression analysis was performed using GraphPad Prism to calculate the IC50 value. This value reflects the concentration needed to inhibit cell growth by 50%.
# All data are presented as mean ± standard error of the mean (SEM) and were collected from three separate experiments. Statistical analyses were conducted using Student’s t-test or ANOVA, followed by Tukey’s multiple comparisons test. Significance is indicated by *p < 0.05, **p < 0.01, and ***p < 0.001.
# [3] = tested on: LPS-induced nitric oxide (NO) production in RAW 264.7 cells; test: Inhibition of NO generation in LPS-induced RAW 264.7 cells (Griess); format: cell-based, murine; settings: RAW 264.7 cells, LPS-induced, highest concentration 50 μg/mL
# Experimental: The nitrite concentration in the culture medium was measured to indicate nitric oxide (NO) production as previously described (Min et al. [2009]). The murine macrophage RAW 264.7 cell line was obtained from ATCC, Manassas, VA, USA, and maintained in Dulbecco’s modified Eagle’s medium supplemented with 10% heat-inactivated FBS (Cat. No. A5670801, Gibco BRL Co, Grand Island, NY, USA), penicillin G (100 units/mL) (Cat. No. P7794, Sigma-Aldrich, USA), streptomycin (100 µg/mL) (Cat. No. S9137, Sigma-Aldrich, USA), and L-glutamine (2 mM) (Cat. No. 25030081, Gibco BRL Co, Grand Island, NY, USA). In brief, RAW 264.7 cells were seeded at a density of 4 × 10^4 cells/well in phenol red-free media (Cat. No. 11835030, Gibco, USA) in a 96-well plate, and incubated in a humidified incubator with 5% CO2 at 37 °C for 24 hr. […] The concentration of nitric oxide production was assessed using the Griess reagent, which consists of a 1:1 (v/v) mixture of 1% sulfanilamide (Cat No. A13001, Alfa Aesar, Massachusetts, USA) in H3PO4 and N-(1-naphthyl)ethylenediamine dihydrochloride (Cat. No. 102397, MP Biomedicals, USA). Absorbance was recorded with a microplate reader (SynergyMx, BioTeK, Winooski, VT, USA) at 540 nm. A standard curve was created using sodium nitrite (1–100 μM) (Cat. No. 44227, Alfa Aesar, Massachusetts, USA). A sulforhodamine B (SRB) assay was employed to assess the cellular viability of the samples with RAW 264.7 cells under a similar experimental setup. The final % inhibition of NO production was adjusted based on cell viability.
# S. aureus CART817 = test: Antibacterial MIC, broth microdilution with resazurin; format: cell-based; settings: Staphylococcus aureus; S. aureus CART817, Gram-positive; read-out: MIC
# Experimental: (§1) The minimum inhibitory concentrations (MICs) were determined using a two-fold serial dilution method with MHB following the recommendations of the Clinical and Laboratory Standards Institute (CLSI [2012]; Elshikh et al. [2016]). In brief, serial two-fold dilutions of the samples in DMSO were mixed with MHB in a 96-well microplate. Then, 50 µL of bacteria suspension was added to each well, resulting in a final concentration of 1 × 10^4 colony-forming units/well. The plates were incubated at 35–37 °C for 18–24 hr. After incubation, 10 µL of 0.18% resazurin (Cat. No. R7017, Sigma-Aldrich, USA) was added to each well (Elshikh et al. [2016]). The MIC was assessed within 2–3 hr after the addition of resazurin. All antimicrobial assays were performed in triplicate, using vancomycin (Cat. No. SBR00001, Sigma-Aldrich, USA) and gentamicin (Cat. No. G1397, Sigma-Aldrich, USA) as standard controls.
# MRSA HBP10 = test: as above; format: cell-based, Staphylococcus aureus; settings: MRSA HBP10, Gram-positive
# From the text: (§2) Methicillin-resistant Staphylococcus aureus (MRSA), methicillin-susceptible S. aureus (MSSA), and Gram-negative clinical isolates of bacteria [Escherichia coli (9637) and Serratia marcescens ATCC 13880] were used for this study. […] MSSA HBP10, MSSA LUU7, MSSA R113, S. aureus ONE9, and MSSA POB2 were isolated in Hawaiʻi (Gerken et al. [2021]). Mueller Hinton Broth (MHB, GTIN:00382902979630, Becton, Dickinson and Company, Franklin Lakes, NJ, USA) and Mueller Hinton Agar (MHA, GTIN:00382902252504, Becton, Dickinson and Company, Franklin Lakes, NJ, USA,) were used for bacterial inoculation. MRSA was a pathogen strain causing hospital-acquired infections in 1982. This strain easily acquires resistance to antibiotics, such as vancomycin. MSSA strains isolated from the Island of Hawaiʻi included: Honolʻii Beach Park (HBP10) carry the genes erm(C), aph(3′)-III, and mecA, which provide resistance to macrolide, aminoglycoside, and beta-lactam antibiotics, respectively; Wailuku River (LUU7) which contains the blaZ gene (beta-lactam resistance) (Gerken et al. [2021]). Richardson’s Beach Park (R113) and Onekahakaha (ONE9) which is known for its virulence factors (hlgA, hlgB, hlgC, lukD, and lukE).
# as §1
# MRSA POB2 = test: as above; format: cell-based, Staphylococcus aureus; settings: MRSA POB2, Gram-positive
# From the text: as §2, §1
# S. aureus NEWMAN = test: as above; format: cell-based, Staphylococcus aureus; settings: Staphylococcus aureus; S. aureus NEWMAN, Gram-positive; read-out: MIC
# From the text: as §2, §1
# E. coli = test: as above; format: cell-based; settings: Escherichia coli, Gram-negative
# From the text: as §2, §1
# MRSA USA300 = test: as above; format: cell-based; settings: Staphylococcus aureus; MRSA USA300, Gram-positive; read-out: MIC
# From the text: as §2, §1
# MSSA LUU7 = test: as above; format: cell-based; settings: Staphylococcus aureus; MSSA LUU7, Gram-positive; read-out: MIC
# From the text: as §2, §1
# MSSA R113 = test: as above; format: cell-based; settings: Staphylococcus aureus; MSSA R113, Gram-positive; read-out: MIC
# From the text: as §2, §1
# S. aureus 8325-4 = test: as above; format: cell-based; settings: Staphylococcus aureus, 83254; S. aureus 8325-4, Gram-positive; read-out: MIC
# From the text: as §2, §1
# S. aureus ONE9 = test: as above; format: cell-based; settings: Staphylococcus aureus; S. aureus ONE9, Gram-positive; read-out: MIC
# From the text: as §2, §1
# S. marcescent = test: as above; format: cell-based, Serratia marcescens; settings: Gram-negative
# From the text: as §2, §1
# [4] = Staphylococcus aureus, read-out: MIC
# [5] = Serratia marcescens, read-out: MIC
SMILES,FRAP ([1]; FeSO4 standard curve) [µM],FRAP ([1]; µM FeSO4/µg sample) [µM/µg],"FRAP ([1]; µM FeSO4/µg sample, listed as ascorbic acid) [µM/µg]",cytotoxic response against A549 cells (in words) [2],NO inhibitory activity (in words) [3],MIC (S. aureus CART817) [µg/mL],MIC (MRSA HBP10; [4]) [µg/mL],MIC (MRSA POB2; [4]) [µg/mL],MIC (S. aureus NEWMAN) [µg/mL],MIC (E. coli) [µg/mL],MIC (MRSA USA300) [µg/mL],MIC (MSSA LUU7) [µg/mL],MIC (MSSA R113) [µg/mL],MIC (S. aureus 8325-4) [µg/mL],MIC (S. aureus ONE9) [µg/mL],MIC (S. marcescent; [5]) [µg/mL],MIC (MRSA HBP10),MIC (MRSA POB2),MIC (S. marcescent)
"O=C1O[C@H]([C@@H](O)CO)C(O)=C1O [Ascorbic acid, ascorbic acid, reference compound]",2847.40,35.59 ± 0.09,35.59,–,–,–,–,–,–,–,–,–,–,–,–,–,–,–,–
"Nc1ncnc2c1ncn2[C@H]1C[C@H](O)[C@@H](CO)O1 [Compound 2, deoxyadenosine]",–,–,–,no cytotoxic response,no significant NO inhibitory activity,128,128,128,128,128,128,128,128,128,128,64,–,–,–
"Nc1cc[nH]c(=O)n1 [Compound 3, cytosine]",–,–,–,no cytotoxic response,no significant NO inhibitory activity,128,128,128,128,128,128,128,128,128,128,128,–,–,–
"CCCCCCCCCCCCCCCC(C)=O [Compound 4, 2-heptadecanone]",–,–,–,–,–,–,–,–,–,–,–,–,–,–,–,–,Inactive,Inactive,Inactive
"CCCCCCCCCCCCCCCC(=O)O [Compound 5, palmitic acid]",88.06,1.10 ± 0.02,–,inactive,–,–,–,–,–,–,–,–,–,–,–,–,Inactive,Inactive,Inactive
"CCCCCCCCCCCCCCCC(=O)OC [Compound 6, methyl palmitate]",499.40,6.24 ± 0.07,–,–,–,–,–,–,–,–,–,–,–,–,–,–,Inactive,Inactive,Inactive
